Data set [1] is described as follows: Solubility test: precipitation behavior in aqueous solution kept at room temperature. It counts as physicochemical. On the set-up: key: ◯: Not precipitated; Δ: Not remarkably precipitated but fine particles are generated; X: Remarkably precipitated. The settings on record: dissolved at 50 to 60° C. How it is done: Thereafter, the resulting solution was kept at room temperature to check a precipitation behavior over time. As Comparative Example, the same experiment was performed using phytospingosine.

Data set [2] deals with Aspergillus niger (A. niger). Put plainly: Antibacterial test (MIC, double dilution in 96-well plate). It counts as cell-based. The following applies: P. ovale medium, cultured 32 to 48 hours. How it is done: (§1) As six representative microbes (fungi, and bacteria) causing skin diseases, each of Malassezia globosa, Malassezia restricta, Candia albicans (C. albicans), Aspergillus niger (A. niger), Enterococcus faecalis, and Brevundimonas vesicularis was seeded in a P. ovale medium, and cultured at 32° C. for 3 days while stirring. The resulting culture broth was diluted with P. ovale at a density of 1.0×10^7 CFU/mL, and the diluted culture broth was used as a test bacterial solution. […] (1) 200 μL of the sample solution prepared in (2) was added to the first row of a 96-well plate. 100 μL of P. ovale was added to the other wells. (2) After the first row of the mixtures were thoroughly mixed, 100 μL of each of the mixtures was taken, added to the second row, and then thoroughly mixed, and 100 μL of each of the mixtures was again taken, and added to the third row. Thereafter, this procedure was repeated to perform a double dilution. (3) After each of the microbes were cultured for 32 to 48 hours, a degree of suspension was used to determine whether the bacteria were growing. […] When it was difficult to determine whether the bacteria were growing due to the opaque mixed solution, the growth of the bacteria was observed under a microscope.

Data set [3] concerns Brevundimonas vesicularis. The description is as above. The class given is cell-based. The following applies: P. ovale medium, cultured 32 to 48 hours. How it is done:
as §1

The subject of data set [4] is Candia albicans (C. albicans). Described as above. The class given is cell-based. The following applies: P. ovale medium, cultured 32 to 48 hours. How it is done: as §1
In a further data set the test system is Enterococcus faecalis. The description is as above. It counts as cell-based. The following applies: P. ovale medium, cultured 32 to 48 hours. How it is done:
as §1

The next data set has as its system Malassezia globosa. Described as above. It counts as cell-based. The following applies: P. ovale medium, cultured 32 to 48 hours. How it is done:
as §1

In the next data set the test system is Malassezia restricta. Described as above. It counts as cell-based. The following applies: P. ovale medium, cultured 32 to 48 hours. How it is done:
as §1

For data set [5] the following is noted: solvent isocetyl alcohol; cited from earlier work.
Where [6] appears, read: 0.1% by weight in distilled water, 1 day.
Setting [7] is: 0.1% by weight in distilled water, 7 days.
[8] abbreviates: 0.1% by weight in distilled water, 30 days.
Where [9] appears, read: 1.0% by weight in distilled water, 1 day.
Setting [10] is: 1.0% by weight in distilled water, 7 days.
Where [11] appears, read: 1.0% by weight in distilled water, 30 days.

The values that follow come from patent US10172777B2, “Phytospingosine derivative and composition containing same” (AMOREPACIFIC CORPORATION, priority 2015, dated 2019).

Consider `CCCCCCCCCCCCCC[C@@H](O)[C@@H](O)[C@@H](N)CO` [Comparative Example, phytospingosine], for which the “precipitation behavior over time” value in data set [1] (setting [6]) is “Δ”; in data set [1] (setting [7]) it was “X”; in data set [1] (setting [8]) it was “X”; in data set [1] (setting [9]), “X”; in data set [1] (setting [10]), “X”; in data set [1] (setting [11]) it was “X”. Besides, the “minimum inhibitory concentration (MIC)” value in data set [2] is 0.5; in data set [3], less than 0.00097; in data set [4], 0.0312; with Enterococcus faecalis it was 0.062; in the data set with Malassezia globosa it was 0.001954; in the data set with Malassezia restricta it was 0.001954. Also, the “content dissolved in isocetyl alcohol” value in data set [5] is listed as “approximately 1 % by weight”.
Turning to `CCCCCCCCCCCCCC[C@@H](O)[C@@H](O)[C@H](CO)NCC1(O)OC[C@@H](O)[C@@H](O[C@H]2O[C@H](CO)[C@@H](O)[C@H](O)[C@H]2O)[C@@H]1O` (stereo partly shown) [Example 1], the “precipitation behavior over time” value in data set [1] (setting [6]), in data set [1] (setting [7]), in data set [1] (setting [8]), in data set [1] (setting [9]), in data set [1] (setting [10]) and in data set [1] (setting [11]) was “◯” each time. The “minimum inhibitory concentration (MIC)” value in data set [2] is given as 0.25; in data set [3], less than 0.00097; in data set [4] it was 0.0019; in the data set on Enterococcus faecalis, 0.0039; in the data set with Malassezia globosa it was 0.001954; in the data set with Malassezia restricta it was 0.001954.
For the molecule `CCCCCCCCCCCCCC[C@@H](O)[C@@H](O)[C@H](CO)NCC1(O)OC[C@@H](O)[C@@H](O[C@H]2O[C@H](CO)[C@H](O)[C@H](O)[C@H]2O)[C@@H]1O` (stereo partly shown) [Example 2], the “precipitation behavior over time” value in data set [1] (setting [6]), in data set [1] (setting [7]), in data set [1] (setting [8]), in data set [1] (setting [9]), in data set [1] (setting [10]) and in data set [1] (setting [11]) was “◯” each time.
